Source: patent US12070452B2, “Compounds targeting HSP110 protein for cancer treatment” (INSERM (Institut National de la Santé et de la Recherche …, priority 2018, dated 2024)

Experiments:
HCT116 cells = test: Cell proliferation, Cell Trace Violet flow cytometry, HCT116; assay type: cell-based, human; settings: HCT116 cells with shRNA control, 10 μM, 96 h
Experimental: FIG. 4B: Relative quantification of cell proliferation in HCT116 cells transfected with shRNA for shRNA control (shCtrl) (from the first to the fourth columns from left to right) or HSP110-silencing (sh110) ((from the fifth to the last columns, from left to right) left to right) treated with Ctrl (DMSO), compound 33, compound 52, and comparative compound 61 at a concentration of 10 μM during 96 h (Histogram from the left to the right). Ordinate: Percentage of HCT116 cell proliferation (scale 20) for the lower figure. Statistical analysis has been performed by ANOVA **: (p<0.05); ***: p<0.005. Western blot of HSP110 and actin (first and second line of blots) for the shCtrl HCT116 cells and sh110 HCT116 cells (first and second columns).
Colorectal cells lines were purchased from the American Type Culture Collection. CT-26 and HCT116 were cultured in Roswell Park Memorial Institute 1640 medium. […]
Proliferation was determined by staining cells with Cell Trace Violet (Invitrogen-C34557) according to the manufacturer's procedure. Cell divisions were detected over 96 h by flow cytometry (LSRII cytometer) and the number of cell generations was estimated by ModFit software. […]

[1] = tested on: human colorectal cancer HCT116 cells; test: Tumor growth, HCT116 xenograft in NOD/SCID mice; assay type: in vivo; settings: HCT116, 5 mg/Kg intraperitoneally every three days
Experimental: FIG. 6B: Tumor volume monitoring of HCT116 cells grown in NOD/SCID animals treated intraperitoneally either with a non-relevant compound which is DMSO (named VEH line with circle) or treated with the compound 33 (5 mg/kg—line with square) (Abscissa: Days from 0 to 62 in day; Ordinate: Tumor volume in mm^3 from 0 to 2500 (scale 500)).
(§1) Two different colorectal mouse models were used: a syngeneic model for which mouse colon cancer CT-26 cells were injected into Balb/c mice and a NOD/SCID model in which mice were implanted with human colorectal cancer HCT116 cells (FIG. 4 A-B). When the tumor reached a size of −2 mm, mice were treated intraperitoneally with the compound 33 at 5 mg/Kg (BALB/c n=11, NOD SCID n=6) or corn oil 5% DMSO (BALB/c n=10, NOD SCID n=6), every three days until the end of the experiment. The compound 33 was dissolved in DMSO, then diluted 20 times in corn oil (Sigma Aldrich-C8267) and sterilized by filtration with PTFE membrane Millex 0.2 μm (Millipore-SLFG025LS). Tumors were analyzed before reaching 2000 mm3. Treatment by compound 33 induces a decrease in tumor growth of 40% and 60% in the Balb/c and NOD mice, respectively (FIGS. 6A and 6B).

CT26 tumors = test: Immunofluorescence of P-STAT3 and cleaved caspase-3 in CT26 tumor slides (Balb/c); assay type: in vivo, mouse
Text: FIG. 7A: Immunofluorescence assay of P-STAT3 (Phosphorylated STAT3) in CT26 cells in Balb/c mice tumors treated with VEH (non-relevant compound which is DMSO) (column on the left) or with compound 33 (column on the right). […] Statistical analysis has been performed by ANOVA (*=p=0.0019).
FIG. 7B: Immunofluorescence assay of cleaved caspase-3 (C3C) in CT26 cells in Balb/c mice tumors treated with VEH (column on the left) or with compound 33 (column on the right). […] (Ordinate: Caspase-3 cleaved relative fluorescence in percentage). Statistical analysis has been performed by ANOVA (***=p=0.0003)
as §1, with “Treatment by compound 33 induces a decrease in tumor growth of 40% and 60% in the Balb/c and NOD mice, respectively (FIGS. 6A and 6B).” left out

HCT116 tumors = test: Immunofluorescence of cleaved caspase-3 in HCT116 tumor slides (NOD/SCID); assay type: in vivo, human; settings: NOD/SCID model
Experimental: FIG. 7C: Immunofluorescence assay of Cleaved caspase-3 (C3C) in HCT116 from NOD mice tumors treated with VEH (column on the left) or with compound 33 (column on the right). […] (Ordinate: Caspase-3 cleaved relative fluorescence in percentage). Statistical analysis has been performed by ANOVA (***=p=0.0003). Scale bar=50 μm.
as §1

[2] = tested on: tumor-infiltrating macrophages; test: Macrophage M1/M2-like markers in tumor slides, NOD/SCID HCT116 xenograft model; assay type: in vivo, mouse
Experimental: Statistical analysis has been performed by ANOVA (***=p=0.0019). FIG. 9B: M2-like markers pSTAT6 and ALOX15 were determined in tumor slides from NOD mice bearing HCT116 xenografts, treated or not with the compound 33 (related to formula (II)). Statistical analysis has been performed by ANOVA (***: p=0.0481). […] Anti-p-STAT1 (1/200; polyclonal, Cell Signaling), anti-SOCS1 (Suppressor of Cytokine Signaling protein 1, 1/200; polyclonal, Santa Cruz), and anti-NOS2 (Nitric Oxide Synthase 2, 1/200; polyclonal Santa Cruz) antibodies were used for M1-like macrophage markers. Anti-pSTAT6 (1/200; polyclonal Santa Cruz), anti-arginase-1 (1/200; polyclonal Santa Cruz) and anti-ALOX15 (Arachidonate 15-LipOXygenase, 1/200; monoclonal Santa Cruz) antibodies were used for M2-like macrophage markers. Primary antibodies were detected using Alexa fluor 488 or Alexa fluor 568-coupled secondary antibodies (1/500, Invitrogen). Nuclei were stained with 10 μl of ProLong Gold Antifade Mountant with DAPI (Molecular Probes). The same protocol was used for NOD/SCID mice except that mice were killed after 16 days after HCT116 cells injection. For the Balb/c model, mice were sacrificed at day 62 (day 1 being the first day of treatment). […] Especially the pSTAT1 relative expression measured is about 1.5 for compound 33 compared to 1.0 for the control, the NOS2 relative expression measured is about 1 for compound 33 compared to 2.5 for the control (FIG. 8A) in CT-26-Balb/c mice model. The pSTAT1 relative expression measured is about 1.5 for compound 33 compared to 0 for the control and the NOS2 relative expression measured is about 20 for compound 33 compared to 2 for the control (FIG. 8B) in NOD/SCID mice model.

[3] = NOD/SCID HCT116 model, control 1

SMILES | hampering of cell proliferation (HCT116 cells) | decrease in tumor growth [1] [%] | P-STAT3 in tumor slides (relative fluorescence) (CT26 tumors; CT26 tumors in Balb/c mice, control 100%) [%] | tumor cell apoptosis (cleaved caspase-3 staining) (CT26 tumors; CT26 tumors, Balb/c model) | tumor cell apoptosis (cleaved caspase-3 staining) (HCT116 tumors) | SOCS1 expression (M1 marker) ([2]; NOD/SCID (xenograft) model) | pSTAT1 relative expression (M1 marker) ([2]; NOD/SCID HCT116 model, control 0) | ALOX15 relative expression (M2 marker) [2, 3] | pSTAT6 relative expression (M2 marker) [2, 3] | NOS2 relative expression (M1 marker) ([2]; NOD/SCID HCT116 model, control 2)
COc1cc(-c2cnc(-c3cnc(-c4cc(OC)c(OC)c(OC)c4)c(C)c3)c(/C=C/c3ccccc3)c2)cc(OC)c1OC [compound 52, (E)-5′-Methyl-3-styryl-5,6′-bis(3,4,5-trimethoxyphenyl)-2,3′-bipyridine] | around 40% | – | – | – | – | – | – | – | – | –
COc1ccc(-c2ncc(-c3ncc(-c4cc(OC)c(OC)c(OC)c4)cc3/C=C/c3ccccc3)cc2C)cc1OC [compound 33, (E)-6′-(3,4-Dimethoxyphenyl)-5′-methyl-3-styryl-5-(3,4,5-trimethoxyphenyl)-2,3′-bipyridine] | around 40% | 60 | 50 | increase in tumor cell apoptosis | increase in tumor cell apoptosis | increase | about 1.5 | about 0 | about 0 | about 20
